IC50, Ratio IC50 and Activity data for 23 compounds are collected here from ChEMBL document CHEMBL4411322 (J Med Chem, 2019).

One experiment has as its target Integrin alpha-V/beta-6 (Homo sapiens, UniProt P06756+P18564). Nature of the experiment: Inhibition of LAP binding to human integrin alphavbeta6 receptor after 1 hr by solid-phase binding assay. It counts as protein-complex assay. Conditions: read-out: IC50.
The species named for another experiment is Homo sapiens. Nature of the experiment: Selectivity ratio of IC50 for human integrin alphavbeta6 receptor to IC50 for human integrin alphavbeta8 receptor.
The target in experiment [1] is T1, Integrin alpha-V/beta-8 (Homo sapiens, UniProt P06756+P26012). In words: Inhibition of LAP binding to human integrin alphavbeta8 receptor after 1 hr by solid-phase binding assay. Conditions: read-out: IC50. It counts as protein-complex assay.
Target sequence in this assay (P06756 31-889 limits assumed): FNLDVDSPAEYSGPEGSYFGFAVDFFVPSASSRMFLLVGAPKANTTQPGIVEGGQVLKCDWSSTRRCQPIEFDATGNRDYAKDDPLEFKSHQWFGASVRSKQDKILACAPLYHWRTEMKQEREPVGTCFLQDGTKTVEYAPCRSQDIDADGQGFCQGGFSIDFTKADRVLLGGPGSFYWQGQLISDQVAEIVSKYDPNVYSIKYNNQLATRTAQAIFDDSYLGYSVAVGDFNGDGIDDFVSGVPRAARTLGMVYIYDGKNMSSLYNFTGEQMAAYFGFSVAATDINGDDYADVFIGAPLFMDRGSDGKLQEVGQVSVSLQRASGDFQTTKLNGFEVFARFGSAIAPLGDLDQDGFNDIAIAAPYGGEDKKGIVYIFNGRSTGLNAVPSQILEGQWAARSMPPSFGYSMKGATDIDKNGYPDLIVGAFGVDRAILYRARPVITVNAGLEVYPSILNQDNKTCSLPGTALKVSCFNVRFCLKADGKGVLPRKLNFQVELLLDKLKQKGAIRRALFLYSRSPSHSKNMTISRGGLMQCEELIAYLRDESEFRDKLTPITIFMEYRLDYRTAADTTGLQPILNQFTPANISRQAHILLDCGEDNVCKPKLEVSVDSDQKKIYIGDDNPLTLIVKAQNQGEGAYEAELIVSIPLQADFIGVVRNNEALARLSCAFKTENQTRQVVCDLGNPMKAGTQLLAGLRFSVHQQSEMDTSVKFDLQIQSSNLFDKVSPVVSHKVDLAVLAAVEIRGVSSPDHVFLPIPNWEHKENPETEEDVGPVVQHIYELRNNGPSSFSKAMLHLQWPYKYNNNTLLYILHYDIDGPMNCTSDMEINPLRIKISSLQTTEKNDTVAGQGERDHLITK
Target sequence in this assay (P06756 891-1048 limits assumed): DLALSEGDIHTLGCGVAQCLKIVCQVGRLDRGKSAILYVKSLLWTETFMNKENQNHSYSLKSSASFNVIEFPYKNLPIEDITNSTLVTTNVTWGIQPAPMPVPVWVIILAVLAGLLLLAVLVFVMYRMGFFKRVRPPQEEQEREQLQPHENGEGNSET
Target sequence in this assay (P26012 43-769 limits assumed): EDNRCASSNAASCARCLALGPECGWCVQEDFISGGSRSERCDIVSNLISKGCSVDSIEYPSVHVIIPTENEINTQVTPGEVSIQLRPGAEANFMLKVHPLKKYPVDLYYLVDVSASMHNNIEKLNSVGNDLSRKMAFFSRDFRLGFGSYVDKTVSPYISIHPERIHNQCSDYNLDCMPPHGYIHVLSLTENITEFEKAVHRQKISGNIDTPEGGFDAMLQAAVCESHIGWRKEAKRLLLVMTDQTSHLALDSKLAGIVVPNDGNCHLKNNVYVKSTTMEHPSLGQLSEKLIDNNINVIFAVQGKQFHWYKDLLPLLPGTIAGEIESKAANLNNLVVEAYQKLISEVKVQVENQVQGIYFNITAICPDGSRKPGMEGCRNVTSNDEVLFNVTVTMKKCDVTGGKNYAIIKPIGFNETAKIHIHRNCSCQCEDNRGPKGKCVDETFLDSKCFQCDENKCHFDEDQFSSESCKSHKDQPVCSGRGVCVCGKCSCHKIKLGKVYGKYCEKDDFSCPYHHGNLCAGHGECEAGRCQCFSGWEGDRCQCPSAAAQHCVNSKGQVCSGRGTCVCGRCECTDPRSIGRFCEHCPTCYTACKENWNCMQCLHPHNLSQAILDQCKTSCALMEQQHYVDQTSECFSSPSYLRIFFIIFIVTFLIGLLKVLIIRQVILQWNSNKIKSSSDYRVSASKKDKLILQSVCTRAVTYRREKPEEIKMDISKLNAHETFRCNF
A further experiment concerns the target Integrin alpha-V/beta-5 (Homo sapiens, UniProt P06756+P18084). Nature of the experiment: Inhibition of human vitronectin binding to human integrin alphavbeta5 receptor after 1 hr by solid-phase binding assay. It counts as protein-complex assay.
In experiment [2] the target is Integrin alpha-IIb/beta-3 (Homo sapiens, UniProt P05106+P08514). Nature of the experiment: Inhibition of human fibrinogen binding to human platelet integrin alpha2b-beta3 receptor after 1 hr by solid-phase binding assay.
Experiment [3] deals with T1, Integrin alpha-V/beta-8. In words: Binding affinity to alphavbeta8 in human BHY cells assessed as fluorescence intensity at 10 uM after 1 hr using BDP FL-labeled compound by immunocytochemical analysis. It is filed as cell-based.
Experiment [4] has as its target T1, Integrin alpha-V/beta-8. In words: Binding affinity to alphavbeta8 in human REC cells assessed as fluorescence intensity at 10 uM after 1 hr using BDP FL-labeled compound by immunocytochemical analysis. It is filed as cell-based.
Experiment [5] concerns the target T1, Integrin alpha-V/beta-8. Nature of the experiment: Binding affinity to alphavbeta8 in human HN cells assessed as fluorescence intensity at 10 uM after 1 hr using BDP FL-labeled compound by immunocytochemical analysis. It counts as cell-based.
The target in the next experiment is Integrin alpha-5/beta-1 (Homo sapiens, UniProt P05556+P08648). In words: Inhibition of human fibronectin binding to human integrin alpha5beta1 receptor after 1 hr by solid-phase binding assay. It counts as protein-complex assay.
Another experiment addresses Integrin alpha-V/beta-3 (Homo sapiens, UniProt P05106+P06756). Nature of the experiment: Inhibition of human vitronectin binding to human integrin alphavbeta3 receptor after 1 hr by solid-phase binding assay. It counts as protein-complex assay.

Activity calls are given as the source filed them. The rule behind the calls is not given here. Non-standard residues stand in square brackets, D forms with d. Residues, ends and D or L forms follow the SMILES beside them.

Integrin alpha-IIb/beta-3, sequence (P05106 27-788 limits assumed): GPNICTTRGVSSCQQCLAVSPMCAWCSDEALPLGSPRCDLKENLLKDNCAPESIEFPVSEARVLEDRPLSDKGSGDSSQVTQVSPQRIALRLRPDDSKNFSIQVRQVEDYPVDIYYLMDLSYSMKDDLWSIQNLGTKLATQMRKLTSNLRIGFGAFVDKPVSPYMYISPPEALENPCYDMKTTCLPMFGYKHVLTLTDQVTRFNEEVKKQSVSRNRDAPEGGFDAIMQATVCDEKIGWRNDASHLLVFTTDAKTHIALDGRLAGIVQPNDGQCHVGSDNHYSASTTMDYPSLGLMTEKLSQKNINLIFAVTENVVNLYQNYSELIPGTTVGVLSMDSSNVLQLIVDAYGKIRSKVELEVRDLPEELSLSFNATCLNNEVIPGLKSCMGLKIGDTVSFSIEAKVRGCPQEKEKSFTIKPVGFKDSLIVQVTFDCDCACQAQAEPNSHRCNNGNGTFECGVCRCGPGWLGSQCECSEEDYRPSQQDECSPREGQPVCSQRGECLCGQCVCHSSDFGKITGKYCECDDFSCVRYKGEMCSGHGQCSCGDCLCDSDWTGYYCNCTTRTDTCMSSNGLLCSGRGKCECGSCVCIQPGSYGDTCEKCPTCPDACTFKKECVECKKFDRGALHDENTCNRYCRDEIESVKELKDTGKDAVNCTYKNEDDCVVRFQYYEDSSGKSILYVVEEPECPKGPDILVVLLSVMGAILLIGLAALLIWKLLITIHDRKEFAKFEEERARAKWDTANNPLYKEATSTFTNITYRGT
Integrin alpha-IIb/beta-3, sequence (P08514 32-887 limits assumed): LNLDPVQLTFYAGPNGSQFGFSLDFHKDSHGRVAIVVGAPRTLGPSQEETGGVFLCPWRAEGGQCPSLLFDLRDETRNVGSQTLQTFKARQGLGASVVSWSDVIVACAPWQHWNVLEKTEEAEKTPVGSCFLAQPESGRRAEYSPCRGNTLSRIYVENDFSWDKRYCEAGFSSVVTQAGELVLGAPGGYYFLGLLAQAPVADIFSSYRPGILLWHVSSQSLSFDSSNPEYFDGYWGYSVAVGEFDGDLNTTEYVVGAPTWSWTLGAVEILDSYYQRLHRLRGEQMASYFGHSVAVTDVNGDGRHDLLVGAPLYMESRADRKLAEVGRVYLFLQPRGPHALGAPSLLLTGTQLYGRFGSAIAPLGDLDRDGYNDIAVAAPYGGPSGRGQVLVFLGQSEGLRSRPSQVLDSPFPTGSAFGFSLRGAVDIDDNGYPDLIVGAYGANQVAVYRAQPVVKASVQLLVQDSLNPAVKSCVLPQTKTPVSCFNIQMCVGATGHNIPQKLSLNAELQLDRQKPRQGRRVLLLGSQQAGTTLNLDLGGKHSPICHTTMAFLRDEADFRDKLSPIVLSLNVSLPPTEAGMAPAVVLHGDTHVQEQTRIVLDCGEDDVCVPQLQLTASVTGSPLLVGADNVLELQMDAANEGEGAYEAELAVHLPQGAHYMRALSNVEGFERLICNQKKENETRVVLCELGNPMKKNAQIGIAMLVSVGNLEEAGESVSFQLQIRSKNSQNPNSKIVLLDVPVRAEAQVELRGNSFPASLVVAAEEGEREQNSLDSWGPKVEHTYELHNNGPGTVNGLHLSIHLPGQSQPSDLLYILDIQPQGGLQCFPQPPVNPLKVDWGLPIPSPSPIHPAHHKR
Integrin alpha-IIb/beta-3, sequence (P08514 891-1039 limits assumed): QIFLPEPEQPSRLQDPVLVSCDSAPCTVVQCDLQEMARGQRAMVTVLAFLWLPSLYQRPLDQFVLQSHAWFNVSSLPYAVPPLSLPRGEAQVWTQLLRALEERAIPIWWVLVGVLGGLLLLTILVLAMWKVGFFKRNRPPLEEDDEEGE
Integrin alpha-V/beta-6, sequence (P06756 31-889 limits assumed): as the sequence (P06756 31-889 limits assumed) above
Integrin alpha-V/beta-6, sequence (P06756 891-1048 limits assumed): as the sequence (P06756 891-1048 limits assumed) above
Integrin alpha-V/beta-6, sequence (P18564 22-788 limits assumed): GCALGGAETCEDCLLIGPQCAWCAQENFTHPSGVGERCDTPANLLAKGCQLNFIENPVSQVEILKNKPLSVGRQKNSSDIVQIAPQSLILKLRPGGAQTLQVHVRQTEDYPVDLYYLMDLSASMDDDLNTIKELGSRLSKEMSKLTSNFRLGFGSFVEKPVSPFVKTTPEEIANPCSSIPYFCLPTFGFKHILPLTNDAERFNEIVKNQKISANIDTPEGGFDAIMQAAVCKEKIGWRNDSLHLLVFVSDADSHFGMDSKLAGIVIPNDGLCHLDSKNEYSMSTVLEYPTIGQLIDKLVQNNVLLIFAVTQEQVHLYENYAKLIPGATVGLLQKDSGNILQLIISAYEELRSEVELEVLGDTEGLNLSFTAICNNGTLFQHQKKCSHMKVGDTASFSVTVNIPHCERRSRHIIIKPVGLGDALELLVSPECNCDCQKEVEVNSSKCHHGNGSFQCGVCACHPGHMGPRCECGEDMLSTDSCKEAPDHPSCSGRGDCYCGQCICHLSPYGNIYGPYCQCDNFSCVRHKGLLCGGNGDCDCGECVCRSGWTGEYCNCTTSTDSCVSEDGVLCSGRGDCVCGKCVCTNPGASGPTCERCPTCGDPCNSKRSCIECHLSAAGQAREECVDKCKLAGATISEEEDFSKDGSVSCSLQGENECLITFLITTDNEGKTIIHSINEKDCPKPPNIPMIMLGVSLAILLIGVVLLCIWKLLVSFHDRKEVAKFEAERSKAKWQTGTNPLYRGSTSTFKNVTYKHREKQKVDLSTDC
Integrin alpha-V/beta-3, sequence (P05106 27-788 limits assumed): as the sequence (P05106 27-788 limits assumed) above
Integrin alpha-V/beta-3, sequence (P06756 31-889 limits assumed): as the sequence (P06756 31-889 limits assumed) above
Integrin alpha-V/beta-3, sequence (P06756 891-1048 limits assumed): as the sequence (P06756 891-1048 limits assumed) above

In the case of `CC(C)C[C@@H]1NC(=O)[C@@H]2CCCN2C(=O)[C@H]2CCCN2C(=O)[C@H](CC(C)C)NC(=O)[C@H](CC(=O)O)NC(=O)CNC(=O)[C@H](CCCNC(=N)N)NC(=O)[C@H](C)NC(=O)[C@H](C)NC(=O)[C@H](C)NC1=O`, the 50% inhibitory concentration (IC50) is 0.889 µM on Integrin alpha-V/beta-6 and 0.631 µM at Integrin alpha-V/beta-8 [1]. Moreover, the Ratio IC50 in the experiment filed under Homo sapiens amounted to 1.4.

As for `CC(C)C[C@@H]1NC(=O)[C@H](C)NC(=O)[C@H](C(C)C)N(C)C(=O)[C@H]2CCCN2C(=O)[C@H](CC(C)C)NC(=O)[C@H](CC(=O)O)NC(=O)CNC(=O)[C@H](CCCNC(=N)N)NC1=O`, the half-inhibitory concentration (IC50) on Integrin alpha-V/beta-6 came to 0.07 µM; on Integrin alpha-V/beta-8 [1], 0.044 µM. Further, in the experiment filed under Homo sapiens, the Ratio IC50 was 1.6.

On to `CC(C)C[C@@H]1NC(=O)[C@H](CC(=O)O)NC(=O)CNC(=O)[C@H](CCCNC(=N)N)NC(=O)[C@H](C)NC(=O)[C@@H]2CCCN2C(=O)[C@H]2CCCN2C(=O)[C@H](Cc2ccccc2)NC(=O)[C@H](C)NC1=O` (cyclo(ARGDLAF[dP]P)), for which the 50% inhibitory concentration (IC50) (at Integrin alpha-V/beta-5; in experiment [2]) was greater than 1 µM in each case.

As to `CCCCCCNC1C[C@H]2C(=O)NCC(=O)N[C@@H](CC(C)C)C(=O)N[C@@H](CCCNC(=N)N)C(=O)NCC(=O)N[C@@H](CC(=O)O)C(=O)N[C@@H](CC(C)C)C(=O)N3CCC[C@@H]3C(=O)N2C1` (stereo partly specified), the values for the IC50 on Integrin alpha-V/beta-6 and at Integrin alpha-V/beta-8 [1] were 0.204 µM and 0.0128 µM, respectively. In the experiment filed under Homo sapiens, the Ratio IC50 was determined as 16.

On to `CC(C)C[C@@H]1NC(=O)[C@H](C)NC(=O)[C@@H]2CCCN2C(=O)[C@H]2CCCN2C(=O)[C@H](CC(C)C)NC(=O)[C@H](CC(=O)O)NC(=O)CNC(=O)[C@H](CCCNC(=N)N)NC(=O)[C@H](C)NC(=O)[C@H](C)NC1=O`, for which the IC50 on Integrin alpha-V/beta-6 stood at 0.43 µM; on Integrin alpha-V/beta-8 [1], 0.27 µM. Also, the Ratio IC50 in the experiment listed under Homo sapiens is 1.6.

For `CC(C)C[C@@H]1NC(=O)[C@H](CC(=O)O)NC(=O)[C@H]([C@@H](C)O)NC(=O)[C@H](CCCNC(=N)N)NC(=O)[C@H](Cc2ccccc2)NC(=O)[C@H](C)NC(=O)[C@@H]2CCCN2C(=O)[C@H]2CCCN2C1=O`, the IC50 at Integrin alpha-V/beta-6 was 0.256 µM; on Integrin alpha-V/beta-8 [1], 0.0043 µM. Besides, in the experiment listed under Homo sapiens, the Ratio IC50 worked out at 60.

As to `CC(C)C[C@@H]1NC(=O)[C@H](C)NC(=O)[C@@H]2CCCN2C(=O)[C@H]2CCCN2C(=O)[C@H](CC(C)C)NC(=O)[C@H](CC(=O)O)NC(=O)CNC(=O)[C@H](CCCNC(=N)N)NC1=O` (cyclo(RGDL[dP]PAL)), the IC50 was determined as 0.0318 µM on Integrin alpha-V/beta-6 and 0.00131 µM on Integrin alpha-V/beta-8 [1]. Also, the Ratio IC50 in the experiment filed under Homo sapiens worked out at 24.

Take `CC(C)C[C@@H]1NC(=O)[C@H](CC(=O)O)NC(=O)CNC(=O)[C@H](CCCNC(=N)N)NC(=O)[C@@H](C)NC(=O)[C@H](C)NC(=O)[C@@H]2CCCN2C(=O)[C@H]2CCCN2C1=O`: the IC50 on Integrin alpha-V/beta-6 was 0.112 µM; on Integrin alpha-V/beta-8 [1], 0.0594 µM. Also, in the experiment listed under Homo sapiens, the Ratio IC50 came to 1.9.

Turning to `CC1=CC(C)=[N+]2C1=Cc1ccc(CCC(=O)NCCCCCC(=O)NCCCC[C@@H]3NC(=O)[C@@H](Cc4ccccc4)NC(=O)[C@H](CC(=O)O)NC(=O)CCNC(=O)[C@H](CCCNC(=N)N)NC3=O)n1[B-]2(F)F`, the result at Integrin alpha-V/beta-8 [3], on Integrin alpha-V/beta-8 [4] and on Integrin alpha-V/beta-8 [5] was inactive.

With `CC(C)C[C@@H]1NC(=O)[C@H](C)NC(=O)[C@H](CC(C)C)N(C)C(=O)[C@H]2CCCN2C(=O)[C@H](CC(C)C)NC(=O)[C@H](CC(=O)O)NC(=O)CNC(=O)[C@H](CCCNC(=N)N)NC1=O`, the half-inhibitory concentration (IC50) is 0.18 µM at Integrin alpha-V/beta-6 and 0.034 µM at Integrin alpha-V/beta-8 [1]. Moreover, the Ratio IC50 in the experiment filed under Homo sapiens amounted to 5.3.

Turning to `CC(C)C[C@@H]1NC(=O)[C@H](C)NC(=O)[C@@H]2CCCN2C(=O)[C@@H](CCCCN)N(C)C(=O)[C@H](CC(C)C)NC(=O)[C@H](CC(=O)O)NC(=O)CNC(=O)[C@H](CCCNC(=N)N)NC1=O`, the figures for the IC50 on Integrin alpha-V/beta-6 and on Integrin alpha-V/beta-8 [1] were 0.039 µM and 0.0121 µM, respectively. Besides, the Ratio IC50 in the experiment listed under Homo sapiens is 3.2.

For `CCCC[C@@H]1NC(=O)[C@H](CC(=O)O)NC(=O)CNC(=O)[C@H](CCCNC(=N)N)NC(=O)[C@H](Cc2ccccc2)NC(=O)[C@H](C)NC(=O)[C@@H]2CCCN2C(=O)[C@H]2CCCN2C1=O`, the IC50 worked out at 0.142 µM on Integrin alpha-V/beta-6 and 0.0381 µM on Integrin alpha-V/beta-8 [1]. In the experiment filed under Homo sapiens, the Ratio IC50 was 3.7.

In the case of `CC[C@H](C)[C@@H]1NC(=O)[C@H](CC(=O)O)NC(=O)CNC(=O)[C@H](CCCNC(=N)N)NC(=O)[C@H](Cc2ccccc2)NC(=O)[C@H](C)NC(=O)[C@@H]2CCCN2C(=O)[C@H]2CCCN2C1=O`, the IC50 at Integrin alpha-V/beta-6 was 0.707 µM; on Integrin alpha-V/beta-8 [1], 0.169 µM. The Ratio IC50 in the experiment listed under Homo sapiens stood at 4.2.

With `CC(C)C[C@@H]1NC(=O)[C@H](C)NC(=O)[C@H](C)NC(=O)[C@@H]2CCCN2C(=O)[C@H]2CCCN2C(=O)[C@H](CC(C)C)NC(=O)[C@H](CC(=O)O)NC(=O)CNC(=O)[C@H](CCCNC(=N)N)NC(=O)[C@H](C)NC1=O`, the IC50 worked out at 0.14 µM at Integrin alpha-V/beta-6 and 0.0474 µM on Integrin alpha-V/beta-8 [1]. Moreover, the Ratio IC50 in the experiment filed under Homo sapiens worked out at 2.9.

Take `CC(C)C[C@@H]1NC(=O)[C@H](C)NC(=O)[C@H](CCCCN)N(C)C(=O)[C@H]2CCCN2C(=O)[C@H](CC(C)C)NC(=O)[C@H](CC(=O)O)NC(=O)CNC(=O)[C@H](CCCNC(=N)N)NC1=O`: the half-inhibitory concentration (IC50) at Integrin alpha-V/beta-6 is 0.062 µM; at Integrin alpha-V/beta-8 [1], 0.044 µM. In addition, the Ratio IC50 in the experiment filed under Homo sapiens came to 1.4.

Consider `CC(C)C[C@@H]1NC(=O)[C@H](CC(=O)O)NC(=O)CNC(=O)[C@H](CCCNC(=N)N)NC(=O)[C@H](C)NC(=O)[C@H](C)NC(=O)[C@H](C)NC(=O)[C@H](C)NC(=O)[C@@H]2CCCN2C(=O)[C@H]2CCCN2C1=O`, for which the IC50 at Integrin alpha-V/beta-6 was 0.274 µM; on Integrin alpha-V/beta-8 [1] it was 0.166 µM. Besides, the Ratio IC50 in the experiment filed under Homo sapiens turned out to be 1.7.

On to `CC(C)C[C@@H]1NC(=O)[C@H](CC(=O)O)NC(=O)CNC(=O)[C@H](CCCNC(=N)N)NC(=O)[C@H](CC(=O)O)NC(=O)[C@H](C)NC(=O)[C@@H]2CCCN2C(=O)[C@H]2CCCN2C1=O`, for which the 50% inhibitory concentration (IC50) on Integrin alpha-V/beta-6 is 0.0759 µM; on Integrin alpha-V/beta-8 [1], 0.0063 µM. In addition, the Ratio IC50 in the experiment filed under Homo sapiens was found to be 12.

For the compound `CC(C)C[C@@H]1NC(=O)[C@H](C)NC(=O)[C@H](C)NC(=O)[C@@H]2CCCN2C(=O)[C@H]2CCCN2C(=O)[C@H](CC(C)C)NC(=O)[C@H](CC(=O)O)NC(=O)[C@H]([C@@H](C)O)NC(=O)[C@H](CCCNC(=N)N)NC(=O)[C@H](C)NC1=O`, the IC50 was 0.72 µM on Integrin alpha-V/beta-6 and 0.127 µM at Integrin alpha-V/beta-8 [1]. Also, the Ratio IC50 in the experiment listed under Homo sapiens is 5.7.

`CC(=O)NC1C[C@H]2C(=O)NCC(=O)N[C@@H](CC(C)C)C(=O)N[C@@H](CCCNC(=N)N)C(=O)NCC(=O)N[C@@H](CC(=O)O)C(=O)N[C@@H](CC(C)C)C(=O)N3CCC[C@@H]3C(=O)N2C1` (stereo partly specified): the values for the IC50 on Integrin alpha-V/beta-6 and at Integrin alpha-V/beta-8 [1] were 0.223 µM and 0.0105 µM, respectively. The Ratio IC50 in the experiment filed under Homo sapiens was determined as 21.

As for `CC(C)C[C@@H]1NC(=O)[C@H](CC(=O)O)NC(=O)CNC(=O)[C@H](CCCNC(=N)N)NC(=O)[C@H](Cc2ccccc2)NC(=O)[C@H](CCCCN)N(C)C(=O)[C@H]2CCCN2C(=O)[C@H](Cc2ccccc2)NC(=O)[C@H](C)NC1=O`, the IC50 (at Integrin alpha-V/beta-5; in experiment [2]) was greater than 1 µM each time.

On to `CCNC(=N)NCCC[C@@H]1NC(=O)[C@H](CC(C)C)NC(=O)CNC(=O)[C@@H]2CCCN2C(=O)[C@H]2CCCN2C(=O)[C@H](CC(C)C)NC(=O)[C@H](CC(=O)O)NC(=O)CNC1=O`, for which the half-inhibitory concentration (IC50) at Integrin alpha-V/beta-6 worked out at 0.769 µM; on Integrin alpha-V/beta-8 [1], 0.038 µM. In addition, the Ratio IC50 in the experiment filed under Homo sapiens turned out to be 20.

For the compound `CC(C)C[C@@H]1NC(=O)[C@H](CC(=O)O)NC(=O)CNC(=O)[C@H](CCCNC(=N)N)NC(=O)[C@H](Cc2c[nH]c3ccccc23)NC(=O)[C@H](C)NC(=O)[C@@H]2CCCN2C(=O)[C@H]2CCCN2C1=O`, the 50% inhibitory concentration (IC50) at Integrin alpha-V/beta-6 is 0.073 µM; on Integrin alpha-V/beta-8 [1], 0.00373 µM. In the experiment filed under Homo sapiens, the Ratio IC50 is 20.1.

Turning to `CC(C)C[C@@H]1NC(=O)CNC(=O)[C@@H]2CCCN2C(=O)[C@H]2CCCN2C(=O)[C@H](CC(C)C)NC(=O)[C@H](CC(=O)O)NC(=O)CNC(=O)[C@H](CCCNC(=N)N)NC1=O` (cyclo(RGDL[dP]PGL)), the IC50 at Integrin alpha-V/beta-6 is 0.16 µM; on Integrin alpha-V/beta-5, greater than 1 µM; at Integrin alpha-5/beta-1, greater than 1 µM; in experiment [2], greater than 1 µM; on Integrin alpha-V/beta-3 it was greater than 1 µM; on Integrin alpha-V/beta-8 [1], 0.0045 µM. Further, the Ratio IC50 in the experiment listed under Homo sapiens was found to be 36.
